According to US20120305840A1, “CARBON DIOXIDE ABSORBING SOLUTION” (Kabushiki Kaisha Toshiba, priority 2009, published 2012):

Columns and labels:
[1] = Volatility: decreased amount of absorbent by 1H-NMR after heating; type: physicochemical; details: 60 minutes at 140° C.
Procedure: According to the decreased amount, the volatility was evaluated. The less the decreased amount was, the less volatile the absorbent was regarded as. In general, if containing a less volatile absorbent, the absorbing solution can be repeatedly regenerated without decrease of the absorbent content.

[2] = Precipitation in the absorbing solution after absorbing carbon dioxide; type: physicochemical

SMILES	volatility of the absorbent (in words) [1]	precipitation in the absorbing solutions on absorbing carbon dioxide to form products [2]
O=C([O-])C1CCCN1.[K+] (stereo not shown) [absorbent 2, pyrrolidine-2-carboxylic acid salt]	hardly volatilize	did not precipitate
O=C([O-])C1CNC1.[K+] [absorbent 1, potassium 1-aza-azetidine-3-carboxylate]	hardly volatilize	did not precipitate
